What was measured:
[1] = AUC (0 to 24 hrs) in C57BL/6 mouse plasma at 40 mg/kg, po administered via gavage by LC-MS/MS analysis; format: ADME, organism-based; design: time < 24 hr, dose 40 mg/kg, route oral; details: in vivo
A549 = experiment: Induction of apoptosis in human A549 cells assessed as viable cells at 4 uM after 24 hrs in presence of paclitaxel by Annexin V/propidium iodide staining-based flow cytometric analysis (reference value: 96.2%); format: functional

Work on `O=C(NO)c1ccc(Cn2c(=O)n(CCc3ccccc3)c(=O)c3ccccc32)cc1` yielded an AUC [1] of 71 ng·h/g and an Activity (A549) of 92.7%.
